According to publication PMC11623267, “Inhibitors of malaria parasite cyclic nucleotide phosphodiesterases block asexual blood-stage development and mosquito transmission” (Science Advances, 2024):
Read-outs that look alike come from different tables or passages of the source.

What was measured:
[1] = system: P. falciparum (clone 3D7); experiment: Parasite reduction ratio (PRR) assay; assay type: cell-based, Plasmodium falciparum; details: for Lag phase / Log PRR / PCT99.9% (hours taken to kill 99.9% of the parasites): 10× EC50, 3D7; for Slope: 10× EC50, 3D7 killing profile; for Killing profile: 10× EC50, faster than pyrimethamine, slower than chloroquine
Experimental: The in vitro killing profile of compounds was determined by monitoring the ability of parasites to recover following treatment with a compound of interest using a previously reported approach ([50]), which allowed calculation of the PRR ([51]). […] To quantify the number of viable parasites following treatment, four independent sets of threefold serial dilutions were performed on each sample, which were assayed for the presence or absence of parasites after 28 days using the LDH assay, and the number of viable parasites was determined by the number of wells showing growth. PRR and PCT99.9% were calculated as previously reported ([50]).

HepG2 cells = experiment: HepG2 cytotoxicity; assay type: cell-based
From the text: Table 1. Key activity data for the three main chemical subseries against ABS parasites, parasite fractions, and HepG2 cells. ND, not determined; ×/÷ is the geometric mean with geometric SD. | column: HepG2 EC50 (nM) (selectivity index)

[2] = system: P. falciparum clinical isolates from Porto Velho, Brazil; experiment: Ex vivo schizont maturation assay, Brazilian clinical isolates; assay type: cell-based, Plasmodium falciparum; details: Plasmodium falciparum
Experimental: Only monoinfected patients with P. falciparum with parasitemia between 2000 and 80,000 parasites/μl and with at least 70% of ring-stage parasites were recruited. Patients who had used an antimalarial in the previous month and/or presented with symptoms of severe malaria were excluded from the study. The study cohort comprised 24 patients living in this highly endemic area. A peripheral venous blood sample (5 ml) was collected from each individual by venipuncture in heparin-containing tubes and immediately used in the ex vivo drug susceptibility assay using preprepared plates containing diluted antimalarial compounds. […] Last, 20 μl of each dilution was transferred into the ex vivo assay plate and diluted 10-fold into the final assay medium containing parasites. For the infected blood preparation, 5 ml of whole blood was centrifuged at 800g for 10 min, and the plasma and buffy coat were removed. […] Control assays on a 3D7 laboratory isolate were performed with medium supplemented with human serum (20%). The iRBC (180 μl per well) were distributed in the predosed drug plate. […] Control wells containing drug-free iRBCs were cultured with complete medium. The parasite-drug incubation was terminated when 40% of the ring stages reached the schizont stage (at least three distinct nuclei per parasite) in the drug-free control wells. Thick blood films were then made from each well, dried, stained with 5% Giemsa solution for 30 min, and examined microscopically. The number of schizonts per 200 asexual-stage parasites was determined for each drug concentration and then normalized by comparing with the schizont number in the drug-free control wells [considered as 100% ([64])]. The half-maximal drug inhibitory response (EC50) was estimated by curve fitting using software from the OriginLab Corporation, Northampton, MA, USA and comparing with parasite growth in the drug-free controls.

[3] = system: P. falciparum stage V gametocytes (female gamete formation); experiment: Female gamete formation inhibition assay; assay type: cell-based, Plasmodium falciparum; details: 2 μM, 48 hours
Experimental: Mature gametocytes (>95% stage V) were treated with compounds (2 μM) for 48 hours before stimulating female gamete formation. To evaluate compound dose response, gametocytes were treated similarly at set concentrations representing a fourfold serial dilution. Female gamete activation was induced by both a temperature drop and the addition of 100 μM XA. Monoclonal anti-Pfs25 antibody (BEI Resources, catalog number MRA-28; 1:1000 dilution) conjugated to fluorescein isothiocyanate was used to detect female gametes. Image acquisition was performed using a Zeiss Axio Lab.A1 epifluorescence microscope with a 100/1.4 numerical aperture oil immersion objective and a Zeiss Axiocam 202 mono digital camera. Using a 100× objective, 30 images were taken per sample and analyzed manually. The number, size, roundness, and intensity of fluorescence of activated female gametocytes were evaluated. Compound IC50 values were determined with nonlinear curve fitting (GraphPad Prism 6), normalized to maximum and minimum inhibition.

[4] = system: P. falciparum stage IV/V gametocytes; experiment: LDH-based gametocyte viability assay; assay type: cell-based, Plasmodium falciparum; details: stage IV to V gametocytes
Experimental: The pLDH assay was performed on late (>95% stage IV/V) gametocytes. Compound dilutions were placed in triplicate in 96-well plates in a final volume of 100 μl per well. DHA and MMV048 were used as positive drug controls. The gametocyte cultures (100 μl per well) were added to the 96-well plates to achieve a final gametocytemia and hematocrit of 2 and 1%, respectively, in a total incubation volume of 200 μl. Plates were incubated at 37°C for 72 hours, followed by the replacement of spent medium with drug-free culture medium (75% medium change) ([54], [55]). Plates were then incubated for a further 72 hours before assessing viability by measuring pLDH activity. Gametocyte viability was determined spectrophotometrically by measuring the activity of pLDH, according to a modified version of a published protocol ([56]). Briefly, 100 μl of Malstat reagent [0.21% (v/v) Triton X-100, 222 mM L-(+)-lactic acid, 54.5 mM tris, 0.166 mM APAD (Sigma-Aldrich, A5251), adjusted to pH 9 with 1 M NaOH] was transferred into a clean 96-well plate. A fixed volume of 20 μl of parasite suspension per well was added to the Malstat plate, followed by the addition of 25 μl of PES/NBT (0.239 mM phenazine ethosulfate and 1.96 mM nitro blue tetrazolium chloride). Absorbance was measured with a Multiskan Ascent 354 multiplate scanner (Thermo LabSystems, Finland) at 620 nm.

[5] = system: P. falciparum stage V gametocytes (male gamete formation); experiment: Exflagellation (male gamete formation) inhibition assay; assay type: cell-based, Plasmodium falciparum; details: 2 μM, 48 hours
Experimental: The exflagellation inhibition assay was performed by capturing movement of exflagellation centers over time by video microscopy [adapted from a reported protocol ([52])]. For this carry-over format, mature stage V gametocytes were treated with 2 μM of each compound for 48 hours before induction of exflagellation in the presence of compound. To evaluate compound dose response, gametocytes were treated similarly at a set of concentrations representing a fourfold serial dilution. Mature gametocyte cultures (>95% stage V; 500 μl) were centrifuged at 3500 rpm for 30 s, and the pellet was resuspended in 30 μl of ookinete medium [RPMI 1640 medium containing L-glutamine (Sigma-Aldrich, R6504), gentamycin (0.024 mg/ml; HyClone, SV30080.01), 202 μM hypoxanthine (Sigma-Aldrich, H9636), 25 mM Hepes (Sigma-Aldrich, H4034), 0.2% glucose (Sigma-Aldrich, G6152), and 0.5% (w/v) AlbuMAX II (Invitrogen, Paisley, UK), supplemented with 100 μM XA and 20% human serum]. The activated culture (10 μl) was introduced into a Neubauer chamber and placed on the microscope platform to settle homogenously. Time was noted as time zero (T0), and the chamber was incubated at room temperature. Movement was recorded by video microscopy using a Carl Zeiss NT 6V/10W Stab microscope, fitted with a MicroCapture camera at 10× magnification, and then quantified by a semiautomated method, a modification of the method described previously ([53]). A series of 15 videos of 8 to 10 s each were captured at random locations between 15 and 22.5 min after incubation. Each video was analyzed using Icy bioimage analysis software to quantify the number of exflagellating centers. Compound IC50 values were determined with nonlinear curve fitting (GraphPad Prism 6), normalized to maximum and minimum inhibition.

P. falciparum Dd2-B2 = experiment: 72-hour flow cytometry EC50 assay, Dd2-B2 parental line; assay type: cell-based, Plasmodium falciparum; details: read-out: EC50 Dd2-B2 parental line
Experimental: (§1) Stocks of SAL-0010003 (5-benzyl), SAL-0010355 (5-aryl), and SAL-0010419 (2-alkyl) were made at 10 and 1 mM in DMSO. Aliquots in use were stored at −20°C, and long-term storage was at −80°C. All in vitro studies were done such that the final DMSO concentration was <0.5%. P. falciparum ABS parasites were cultured at 3% hematocrit in human O+ RBCs in RPMI 1640 medium, supplemented with 25 mM Hepes, 50 mg L-hypoxanthine, 2 mM L-glutamine, 0.225% sodium bicarbonate, 0.5% (w/v) AlbuMAX II (Invitrogen) and gentamycin (10 μg/ml), in modular incubator chambers (Billups-Rothenberg) at 5% O2, 5% CO2, and 90% N2 at 37°C. Dd2-B2 (obtained from T. Wellems, National Institute of Allergy and Infectious Diseases, National Institutes of Health) is a genetically homogenous line that was cloned from Dd2 by limiting dilution. To define the EC50 and EC90 values of ABS parasites, Dd2-B2 ring-stage cultures at 0.2% parasitemia and 1% hematocrit were exposed for 72 hours to a range of 10 drug concentrations that were twofold serially diluted in duplicates along with drug-free controls. Parasite survival was assessed by flow cytometry on an iQue flow cytometer (Sartorius) using SYBR Green and MitoTracker Deep Red FM (Life Technologies) as nuclear stain and vital dyes, respectively. After determination of the EC50 and EC90 values for the three compounds with the P. falciparum Dd2-B2 clone, one single-step selection was set up using 2 × 10^5 parasites in each well of a 96-well plate at a starting concentration of 3× EC90. Parasites were cleared from the culture rapidly, and cultures were screened three times weekly by flow cytometry and counted as positive for recrudescence when the overall parasitemia reached 0.3% and the parasites were visible on a blood smear. DNA was extracted from recrudescent lines using a QIAGEN QIAamp Blood Mini Kit, and libraries were prepared with the Illumina DNA Prep kit for whole-genome sequencing on the Illumina MiSeq using a V3 2 × 300–base pair flow cell.

[6] = system: P. falciparum Dd2-B2 lines selected under drug pressure; experiment: 72-hour flow cytometry EC50 assay, lines selected under drug pressure; assay type: cell-based, Plasmodium falciparum; details: for Mean fold change in EC50: selected lines vs Dd2-B2 parental line, ±SD; for EC50 shift, line selected with the same NPD compound, Well 1 / EC50 shift, line selected with the same NPD compound, Well 2 / EC50 shift, line selected with the same NPD compound, Well 3 / EC50 shift, line selected with the same NPD compound, Well 4: vs Dd2-B2
Experimental: Three examples of an additional compound series developed independently [NPD-2958, NPD-3518 ([31]), and NPD-3738; fig.
as §1

[7] = read-out: EC50, line selected with the same NPD compound, Well 1
[8] = read-out: EC50, line selected with the same NPD compound, Well 2
[9] = read-out: EC50, line selected with the same NPD compound, Well 3
[10] = read-out: EC50, line selected with the same NPD compound, Well 4

CCc1c2nc(-c3cc(C(=O)NC)cnc3OCC(C)C)[nH]c(=O)c2nn1CCOC [SAL-0010031]
Lag phase [1]: 0 h
Log PRR [1]: 2.78
PCT99.9% (hours taken to kill 99.9% of the parasites) [1]: 51.2 h
Slope [1]: −0.0579 ± 0.0058
Killing profile [1]: fast/moderate killing profile
EC50 (HepG2 cells): > 25 µM

O=C1C(O)=C([C@H]2CC[C@H](c3ccc(Cl)cc3)CC2)C(=O)c2ccccc21 [Atovaquone, reference compound]
Lag phase [1]: 48 h
Log PRR [1]: 2.26
PCT99.9% (hours taken to kill 99.9% of the parasites) [1]: 73.0 h
Slope [1]: −0.0470 ± 0.0042

C[C@H]1[C@H](OC(=O)CCC(=O)O)O[C@@H]2O[C@@]3(C)CC[C@H]4[C@H](C)CC[C@@H]1[C@@]24OO3 [Artesunate, reference compound]
EC50 ([2]; read-out: EC50 range, clinical isolates): 0.0001 to 0.009 µM
EC50 ([2]; read-out: Median EC50, clinical isolates): 0.0006 µM
Lag phase [1]: 0 h
Log PRR [1]: >8
PCT99.9% (hours taken to kill 99.9% of the parasites) [1]: <24 h

CC(C)COc1ccc(S(=O)(=O)N(C)C)cc1-c1nc2c(C(C)(C)C)n[nH]c2c(=O)[nH]1 [SAL-0010284]
% inhibition of female gamete formation at 2 μM [3]: 58.6 ± 2.1%
% inhibition gametocyte viability at 15 μM [4]: 100 ± 0%
% inhibition of exflagellation at 2 μM [5]: 60.5 ± 18.0%

CC(C)c1n[nH]c2c(=O)[nH]c(C3CCOc4ccc(F)cc43)nc12 (centres unmarked) [SAL-0010007]
% inhibition of female gamete formation at 2 μM [3]: 50.6 ± 1.9%
% inhibition gametocyte viability at 15 μM [4]: 100 ± 0%
% inhibition of exflagellation at 2 μM [5]: 100 ± 0%

CCCCOc1ncc(Br)cc1-c1nc2c(C(C)C)n[nH]c2c(=O)[nH]1 [SAL-0010203]
% inhibition of female gamete formation at 2 μM [3]: 44.8 ± 1.7%
% inhibition gametocyte viability at 15 μM [4]: 0%
% inhibition of exflagellation at 2 μM [5]: 76.7 ± 13.6%

CC(C)COc1ccc(S(=O)(=O)N(C)C)cc1-c1nc2c(C(C)C)n[nH]c2c(=O)[nH]1 [SAL-0010243]
% inhibition of female gamete formation at 2 μM [3]: 80.5 ± 0.9%
% inhibition gametocyte viability at 15 μM [4]: 100 ± 0%
% inhibition of exflagellation at 2 μM [5]: 95.4 ± 12.3%

CC(C)c1n[nH]c2c(=O)[nH]c(C3CCCCC3)nc12 [NPD-3518]
EC50 (P. falciparum Dd2-B2): 0.203 µM
EC50 [6, 7]: 2.63 µM
EC50 [6, 8]: 2.29 µM
EC50 [6, 9]: 2.53 µM
EC50 [6, 10]: 2.51 µM
Mean fold change in EC50 [6]: 12.2 ± 0.7 fold
EC50 shift, line selected with the same NPD compound, Well 1 [6]: 12.9 fold
EC50 shift, line selected with the same NPD compound, Well 2 [6]: 11.2 fold
EC50 shift, line selected with the same NPD compound, Well 3 [6]: 12.4 fold
EC50 shift, line selected with the same NPD compound, Well 4 [6]: 12.4 fold

CC(C)COc1ccc(S(=O)(=O)N(C)C)cc1-c1nc2c(C3CCC3)n[nH]c2c(=O)[nH]1 [SAL-0010283]
% inhibition of female gamete formation at 2 μM [3]: 44.8 ± 2.5%
% inhibition gametocyte viability at 15 μM [4]: 100 ± 0%
% inhibition of exflagellation at 2 μM [5]: 72.1 ± 26.0%

CC(C)c1n[nH]c2c(=O)[nH]c(Cc3ccccc3Cl)nc12 [NPD-2958]
EC50 (P. falciparum Dd2-B2): 0.32 µM
EC50 [6, 7]: 2.57 µM
EC50 [6, 8]: 3.37 µM
EC50 [6, 9]: 2.47 µM
EC50 [6, 10]: 2.44 µM
Mean fold change in EC50 [6]: 8.5 ± 1.4 fold
EC50 shift, line selected with the same NPD compound, Well 1 [6]: 8.1 fold
EC50 shift, line selected with the same NPD compound, Well 2 [6]: 10.5 fold
EC50 shift, line selected with the same NPD compound, Well 3 [6]: 7.7 fold
EC50 shift, line selected with the same NPD compound, Well 4 [6]: 7.6 fold

CNC(=O)c1cnc(OCC(C)C)c(-c2nc3c(C(C)C)n[nH]c3c(=O)[nH]2)c1 [SAL-0010301]
Lag phase [1]: 0 h
Log PRR [1]: 2.55
PCT99.9% (hours taken to kill 99.9% of the parasites) [1]: 55.1 h
Slope [1]: −0.0532 ± 0.0042
Killing profile [1]: fast/moderate killing profile
EC50 (HepG2 cells): > 25 µM
